Key:
Assay type in all cases: in vivo
[1] = test system: tomato late blight fungus (Phytophthora infestans); details: 500 ppm foliage spray; tomato variety PATIO; inoculated 1 day after spraying
[2] = test system: soybean frogeye leaf spot (Cercospora sojina) fungus; assay: Test Example 15: Control Test on Soybean Frogeye Leaf Spot (Cercospora sojina); details: 200 ppm foliage spray 5 days after inoculation; soybean cultivar TACHINAGAHA
Source text: (§1) The non-treatment in Test Examples 5 to 20 means that foliage application of a mixture of a preparation containing the present compound and water was not performed.
Control Test on Soybean Frogeye Leaf Spot (Cercospora sojina)
Each of plastic pots was filled with soil and soybean (cultivar: TACHINAGAHA) was sowed and grown in a greenhouse for 13 days. Thereafter, an aqueous suspension containing spores of soybean frogeye leaf spot (Cercospora sojina) fungus was sprayed to inoculate the spores. After inoculation, the soybean was at first left to stand in a greenhouse at 23° C. in the daytime under high humidity condition for 4 days, and cultivated in a greenhouse at 23° C. for 1 day. Then, the present compound 11 formulated in accordance with the method mentioned in Formulation Example 6 was mixed with water so as to adjust the concentration to 200 ppm, and the mixture was sprayed over stems and leaves of the soybean so that it sufficiently adhered to the surface of the leaves of the soybean. After spraying, the soybean was air-dried and cultivated in a greenhouse at 24° C. during the day and 20° C. at night for 21 days, and then the area of lesion spots was investigated.

[3] = test system: cucumber powdery mildew fungus (Sphaerotheca fuliginea); assay: Test Example 20: Control Test on Cucumber Powdery Mildew (Sphaerotheca fuliginea); details: 200 ppm foliage spray; cucumber cultivar SAGAMI HANJIRO; inoculated 1 day after spraying
Source text: as §1
Control Test on Cucumber Powdery Mildew (Sphaerotheca fuliginea)
Each of plastic pots was filled with soil and cucumber (cultivar; SAGAMI HANJIRO) was sowed and grown in a greenhouse for 12 days. Then, the present compound 41 formulated in accordance with the method mentioned in Formulation Example 6 was mixed with water so as to adjust the concentration to 200 ppm, and the mixture was sprayed over stems and leaves of the cucumber so that it sufficiently adhered to the surface of the leaves of the cucumber. After spraying, the […] was air-dried. After the cucumber was left to stand in a greenhouse at 24° C. during the day and 20° C. at night for 1 day, the spores of the cucumber seedling (cultivar; SAGAMI HANJIRO) infected by cucumber powdery mildew fungus were sprinkling-inoculated. After inoculation, the cucumber was cultivated in a greenhouse at 24° C. during the day and 20° C. at night for 8 days, and then the area of lesion spots was investigated.

[4] = test system: soybean rust fungus (Phakopsora pachyrhizi); assay: Test Example 10: Control Test on Soybean Rust (Phakopsora pachyrhizi), spraying before inoculation; details: 200 ppm foliage spray; soybean cultivar KUROSENGOKU; inoculated 4 days after spraying
Source text: as §1
(§2) Control Test on Soybean Rust (Phakopsora pachyrhizi)
Each of plastic pots was filled with soil and soybean (cultivar: KUROSENGOKU) was sowed and grown in a greenhouse for 13 days. Then, the present compound 1 to 9, 11 to 21, 29 to 37, or 44 formulated in accordance with the method mentioned in Formulation Example 6 was mixed with water so as to adjust the concentration to 200 ppm, and the mixture was sprayed over stems and leaves so that it sufficiently adhered to the surface of the leaves of the soybean. After spraying, the soybean was air-dried. After 4 days, an aqueous suspension containing spores of soybean rust fungus was sprayed to inoculate the spores. After inoculation, the soybean was at first left to stand in a greenhouse at 23° C. in the daytime and 20° C. at night under high humidity condition for 1 day, and then cultivated in a greenhouse for 10 days, and the area of lesion spots was investigated. As a result, the area of lesion spots on the soybean treated with the present compound 1 to 9, 11 to 21, 29 to 37, or 44 was 30% or less of that on a non-treated soybean.

[5] = test system: soybean rust fungus (Phakopsora pachyrhizi); assay: Test Example 9: Control Test on Soybean Rust (Phakopsora pachyrhizi), spraying after inoculation; details: 200 ppm foliage spray 3 days after inoculation; soybean cultivar KUROSENGOKU
Source text: as §1, §2
Each of plastic pots was filled with soil and soybean (cultivar: KUROSENGOKU) was sowed and grown in a greenhouse for 10 days. Thereafter, an aqueous suspension containing spores of soybean rust fungus was sprayed to inoculate the spores. After inoculation, the soybean was at first left to stand in a greenhouse at 23° C. in the daytime and 20° C. at night under high humidity condition for 1 day and cultivated in a greenhouse at room temperature for 2 days. Then, the present compound 1 to 9, 11 to 23, 26 to 33, 35 to 41, or 44 formulated in accordance with the method mentioned in Formulation Example 6 was mixed with water so as to adjust the concentration to 200 ppm, and the mixture was sprayed over stems and leaves of the soybean so that it sufficiently adhered to the surface of the leaves of the soybean. After spraying, the soybean was air-dried and cultivated in a greenhouse for 8 days, and then the area of lesion spots was investigated.

For `CCOCCNC(=O)Oc1ccc(-c2noc(C(F)(F)F)n2)cc1` [compound 9], the “area of lesion spots on the treated tomato relative to that on a non-treated tomato” value [1] was ≤ 30%.
With `COCCN(C)C(=O)Oc1ccc(-c2noc(C(F)(F)F)n2)cc1F` [compound 11] the “area of lesion spots on the treated soybean relative to that on a non-treated soybean” value [2] was ≤ 30%.
In the case of `CC1(C(=O)Nc2ccc(-c3noc(C(F)(F)F)n3)cc2)CC1` [compound 41], the “area of lesion spots on the treated cucumber relative to that on a non-treated cucumber” value [3] was ≤ 30%.
In the case of `O=C(Oc1ccc(-c2noc(C(F)(F)F)n2)cc1)C1CCCCC1` [compound 44], the “area of lesion spots on the treated soybean relative to that on a non-treated soybean” value [4] was ≤ 30% and the “area of lesion spots on the treated soybean relative to that on a non-treated soybean” value [5] was ≤ 30%.

— US20180352814A1 (priority 2015, published 2018)
